Numbers after ± are expanded uncertainties.
Settings: for mass density: Fluid (supercritical or subcritical phases), Vibrating tube method

C/C=C\C [(Z)-2-butene]
Settings | Critical density [kg/m3] | mass density [kg/m3]
453.24 K, 29992 kPa | – | 504.64 ± 1.2
453.24 K, 34997 kPa | – | 516.94 ± 1.3
453.24 K, 39986 kPa | – | 527.56 ± 1.4
458.24 K, 5019 kPa | – | 150.54 ± 0.7
458.24 K, 9982 kPa | – | 395.53 ± 0.93
458.24 K, 14988 kPa | – | 439.55 ± 0.99
458.24 K, 20006 kPa | – | 465.63 ± 1.1
458.24 K, 24985 kPa | – | 484.52 ± 1.2
458.24 K, 30000 kPa | – | 499.71 ± 1.2
458.24 K, 34991 kPa | – | 512.34 ± 1.3
458.24 K, 39989 kPa | – | 523.28 ± 1.4
463.23 K, 39987 kPa | – | 519.02 ± 1.4
463.24 K, 5019 kPa | – | 137.08 ± 0.68
463.24 K, 9986 kPa | – | 383.54 ± 0.91
463.24 K, 14987 kPa | – | 431.68 ± 0.97
463.24 K, 20001 kPa | – | 459.21 ± 1.1
463.24 K, 24986 kPa | – | 479.01 ± 1.1
463.24 K, 29986 kPa | – | 494.71 ± 1.2
463.24 K, 34995 kPa | – | 507.77 ± 1.3
468.24 K, 5018 kPa | – | 127.59 ± 0.66
468.24 K, 10000 kPa | – | 371.16 ± 0.89
468.24 K, 14996 kPa | – | 423.86 ± 0.96
468.24 K, 20007 kPa | – | 452.9 ± 1.1
468.24 K, 24993 kPa | – | 473.52 ± 1.1
468.24 K, 29993 kPa | – | 489.76 ± 1.2
468.24 K, 34996 kPa | – | 503.22 ± 1.3
468.24 K, 40007 kPa | – | 514.77 ± 1.4
473.23 K, 5018 kPa | – | 120.28 ± 0.64
473.24 K, 9991 kPa | – | 357.88 ± 0.87
473.24 K, 14997 kPa | – | 415.28 ± 0.94
473.24 K, 20004 kPa | – | 446.42 ± 1
473.24 K, 25004 kPa | – | 467.94 ± 1.1
473.24 K, 30000 kPa | – | 484.78 ± 1.2
473.24 K, 34996 kPa | – | 498.62 ± 1.3
473.24 K, 39991 kPa | – | 510.47 ± 1.4
478.23 K, 14995 kPa | – | 407.2 ± 0.92
478.23 K, 19994 kPa | – | 439.87 ± 1
478.23 K, 25001 kPa | – | 462.4 ± 1.1
478.23 K, 35013 kPa | – | 494.09 ± 1.3
478.23 K, 39992 kPa | – | 506.21 ± 1.4
478.24 K, 5015 kPa | – | 114.19 ± 0.61
478.24 K, 9987 kPa | – | 344.22 ± 0.84
478.24 K, 29999 kPa | – | 479.77 ± 1.2
483.23 K, 5018 kPa | – | 109.23 ± 0.59
483.23 K, 19992 kPa | – | 433.21 ± 1
483.24 K, 10014 kPa | – | 330.62 ± 0.82
483.24 K, 14991 kPa | – | 398.7 ± 0.91
483.24 K, 25005 kPa | – | 456.72 ± 1.1
483.24 K, 29995 kPa | – | 474.68 ± 1.2
483.24 K, 34999 kPa | – | 489.39 ± 1.3
483.24 K, 39992 kPa | – | 501.87 ± 1.4
488.23 K, 5019 kPa | – | 104.99 ± 0.56
488.23 K, 19987 kPa | – | 426.61 ± 1
488.23 K, 25005 kPa | – | 451.11 ± 1.1
488.23 K, 29989 kPa | – | 469.66 ± 1.2
488.23 K, 34990 kPa | – | 484.81 ± 1.3
488.23 K, 39992 kPa | – | 497.63 ± 1.4
488.24 K, 10014 kPa | – | 316.46 ± 0.79
488.24 K, 15002 kPa | – | 390.34 ± 0.89
493.23 K, 5016 kPa | – | 101.23 ± 0.54
493.23 K, 9986 kPa | – | 301.65 ± 0.76
493.23 K, 14996 kPa | – | 381.74 ± 0.88
493.23 K, 19990 kPa | – | 420.02 ± 0.98
493.23 K, 24987 kPa | – | 445.42 ± 1.1
493.23 K, 29998 kPa | – | 464.71 ± 1.2
493.23 K, 35003 kPa | – | 480.29 ± 1.3
493.23 K, 40013 kPa | – | 493.44 ± 1.4
498.23 K, 5018 kPa | – | 97.97 ± 0.51
498.23 K, 9985 kPa | – | 287.72 ± 0.73
498.23 K, 14994 kPa | – | 373.12 ± 0.86
498.23 K, 19993 kPa | – | 413.38 ± 0.97
498.23 K, 24997 kPa | – | 439.84 ± 1.1
498.23 K, 29994 kPa | – | 459.71 ± 1.2
498.23 K, 35006 kPa | – | 475.76 ± 1.2
498.23 K, 40006 kPa | – | 489.2 ± 1.4
503.23 K, 5019 kPa | – | 95.03 ± 0.49
503.23 K, 10004 kPa | – | 274.87 ± 0.7
503.23 K, 14996 kPa | – | 364.53 ± 0.84
503.23 K, 20003 kPa | – | 406.9 ± 0.96
503.23 K, 24990 kPa | – | 434.25 ± 1.1
503.23 K, 29984 kPa | – | 454.72 ± 1.1
503.23 K, 34985 kPa | – | 471.2 ± 1.2
503.23 K, 39993 kPa | – | 485.02 ± 1.3
508.23 K, 5019 kPa | – | 92.41 ± 0.46
508.23 K, 9990 kPa | – | 262 ± 0.68
508.23 K, 15002 kPa | – | 356.04 ± 0.83
508.23 K, 19984 kPa | – | 400.28 ± 0.94
508.23 K, 25008 kPa | – | 428.76 ± 1.1
508.23 K, 29983 kPa | – | 449.83 ± 1.1
508.23 K, 35004 kPa | – | 466.79 ± 1.2
508.23 K, 40004 kPa | – | 480.91 ± 1.3
513.23 K, 5014 kPa | – | 89.94 ± 0.44
513.23 K, 9984 kPa | – | 250.08 ± 0.65
513.23 K, 14990 kPa | – | 347.39 ± 0.81
513.23 K, 19997 kPa | – | 393.83 ± 0.93
513.23 K, 25007 kPa | – | 423.21 ± 1
513.23 K, 29985 kPa | – | 444.89 ± 1.1
513.23 K, 35002 kPa | – | 462.3 ± 1.2
513.23 K, 40010 kPa | – | 476.76 ± 1.3
518.22 K, 5019 kPa | – | 87.78 ± 0.42
518.22 K, 14988 kPa | – | 338.79 ± 0.8
518.22 K, 25002 kPa | – | 417.6 ± 1
518.22 K, 30005 kPa | – | 440.02 ± 1.1
518.22 K, 39988 kPa | – | 472.55 ± 1.3
518.23 K, 9996 kPa | – | 239.51 ± 0.63
518.23 K, 20004 kPa | – | 386.86 ± 0.92
518.23 K, 34991 kPa | – | 457.76 ± 1.2
523.22 K, 5019 kPa | – | 85.68 ± 0.41
523.22 K, 9990 kPa | – | 229.24 ± 0.66
523.22 K, 14985 kPa | – | 330.32 ± 0.83
523.22 K, 25011 kPa | – | 412.04 ± 1
523.22 K, 29990 kPa | – | 435.04 ± 1.1
523.22 K, 34984 kPa | – | 453.26 ± 1.2
523.22 K, 40013 kPa | – | 468.46 ± 1.3
523.23 K, 20001 kPa | – | 380.33 ± 0.92
Liquid, visual observation in a variable volume cell:FP | 238.12 ± 4.8 | –

Liquid
Settings | Critical pressure [kPa] | Critical temperature [K]
– | 4225.5 ± 11 | 435.75 ± 0.11
